By MIC90 is commonly meant the lowest concentration that inhibits either 90% of growth or 90% of the strains tested, depending on the study. A lower MIC90 goes with higher susceptibility.

This passage reports MIC90 results from publication PMC8950151, “Synthesis and Evaluation of the Antifungal and Toxicological Activity of Nitrofuran Derivatives” (Pharmaceutics, 2022).

For this test, the system named is T. rubrum ATCC MYA-4438. Nature of the test: Quality control of dermatophyte susceptibility assay, MIC90. Type of test: cell-based. The settings on record: Trichophyton rubrum; T. rubrum ATCC MYA-4438 control strain. Here is the method: The experiments were performed according to CLSI […]-A2 [65] for dermatophytes, with minor modifications as described by Costa-Orlandi et al.. The fungal suspensions were adjusted by counting the conidia in the hematocytometer to reach a final concentration of 2.5 × 10^3 cells/mL in RPMI-1640 medium. This was added to the wells at the appropriate compound concentrations and incubated at 35 °C for 96 h with agitation (150 rpm). Visual and colorimetric readings were taken with the addition of 20 μL of 0.03% resazurin [61]. Quality control was performed using the strain of T. rubrum ATCC MYA-4438, with the drug TRB.

Values after ≈ are worked out from the molar mass of the structure shown.

Turning to `CN(C/C=C/C#CC(C)(C)C)Cc1cccc2ccccc12` [TRB, terbinafine], the MIC90 came out at 0.03 µg/mL (≈ 0.103 µM).
